Results on 23 compounds are retold here after ChEMBL document CHEMBL1177739, “Fast-forwarding hit to lead: aurora and epidermal growth factor receptor kinase inhibitor lead identification” (J Med Chem, 2010).

For test [1], the target named is T1, Aurora kinase A (Homo sapiens, UniProt O14965).
T1 sequence (O14965 whole entry): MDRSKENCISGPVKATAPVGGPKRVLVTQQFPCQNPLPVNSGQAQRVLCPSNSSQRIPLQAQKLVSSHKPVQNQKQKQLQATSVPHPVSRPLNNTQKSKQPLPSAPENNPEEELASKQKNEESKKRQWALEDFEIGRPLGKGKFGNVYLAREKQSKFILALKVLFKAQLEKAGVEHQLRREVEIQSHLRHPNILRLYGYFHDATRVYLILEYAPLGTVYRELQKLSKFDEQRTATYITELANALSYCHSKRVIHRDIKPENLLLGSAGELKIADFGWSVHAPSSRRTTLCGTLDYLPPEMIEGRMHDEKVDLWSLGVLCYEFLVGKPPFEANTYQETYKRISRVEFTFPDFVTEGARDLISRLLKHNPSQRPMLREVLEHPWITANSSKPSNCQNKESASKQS

Test [2] deals with HCT-116. Description: Cytotoxicity against human HCT116 cells by MTS assay. The format is functional, cell-based. Background: Tetrazolium assays rely on reduction of a dye to a coloured formazan, in cell work by metabolically active cells.
The target of test [3] is T2, Epidermal growth factor receptor (Homo sapiens, UniProt P00533).
Description: Inhibition of GST-tagged EGFR expressed in Escherichia coli
Test [4] deals with T2, Epidermal growth factor receptor. The settings on record: 20 uM.
Description: Inhibition of GST-tagged EGFR expressed in Escherichia coli at 20 uM
In test [5] the target is Epidermal growth factor receptor (Homo sapiens, UniProt P00533, L858R/T790M).
Test [6] can be described thus: cells. The settings on record: Homo sapiens, HCC827, 96 h.
Description: Antiproliferative activity against human HCC827 cells after 96 hrs by MTS assay
The target of test [7] is T3, Aurora kinase A (Homo sapiens) (UniProt O14965).
T3 sequence (whole entry): T1 sequence (O14965 whole entry)
Description: Inhibition of Aurora A at 10 uM.

T2 sequence (P00533 whole entry): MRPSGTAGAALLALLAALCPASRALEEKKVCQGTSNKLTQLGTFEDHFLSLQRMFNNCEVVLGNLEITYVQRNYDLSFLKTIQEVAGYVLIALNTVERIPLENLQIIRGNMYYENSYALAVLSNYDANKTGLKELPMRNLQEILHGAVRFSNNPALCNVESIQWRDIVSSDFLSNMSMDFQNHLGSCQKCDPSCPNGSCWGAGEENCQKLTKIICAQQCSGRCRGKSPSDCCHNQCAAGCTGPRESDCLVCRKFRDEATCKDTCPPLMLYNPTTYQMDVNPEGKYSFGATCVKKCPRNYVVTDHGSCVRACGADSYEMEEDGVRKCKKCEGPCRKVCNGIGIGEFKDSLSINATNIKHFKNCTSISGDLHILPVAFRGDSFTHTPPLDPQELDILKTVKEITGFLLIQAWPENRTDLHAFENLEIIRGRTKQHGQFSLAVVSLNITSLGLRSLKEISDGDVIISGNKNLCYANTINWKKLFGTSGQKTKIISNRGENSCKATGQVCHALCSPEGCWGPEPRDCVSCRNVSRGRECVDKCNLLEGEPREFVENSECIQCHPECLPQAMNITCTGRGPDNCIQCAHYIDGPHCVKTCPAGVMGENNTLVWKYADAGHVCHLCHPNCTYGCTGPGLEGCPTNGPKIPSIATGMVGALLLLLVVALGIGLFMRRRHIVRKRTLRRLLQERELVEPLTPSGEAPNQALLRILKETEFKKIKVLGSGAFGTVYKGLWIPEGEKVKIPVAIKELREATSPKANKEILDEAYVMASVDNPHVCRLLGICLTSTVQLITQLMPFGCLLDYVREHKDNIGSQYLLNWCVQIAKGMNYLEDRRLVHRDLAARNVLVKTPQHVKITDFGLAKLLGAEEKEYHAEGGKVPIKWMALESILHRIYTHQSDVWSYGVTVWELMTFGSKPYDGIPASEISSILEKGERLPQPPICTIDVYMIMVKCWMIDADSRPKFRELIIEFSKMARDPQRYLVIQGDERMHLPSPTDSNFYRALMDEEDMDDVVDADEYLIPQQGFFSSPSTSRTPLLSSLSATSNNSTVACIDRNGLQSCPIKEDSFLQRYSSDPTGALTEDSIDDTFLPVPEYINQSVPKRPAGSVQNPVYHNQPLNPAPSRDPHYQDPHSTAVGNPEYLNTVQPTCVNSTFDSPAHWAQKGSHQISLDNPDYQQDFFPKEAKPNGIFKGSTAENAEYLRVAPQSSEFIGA
Epidermal growth factor receptor (Homo sapiens, UniProt P00533, L858R/T790M), sequence (P00533 25-1210 T790M/L858R limits assumed): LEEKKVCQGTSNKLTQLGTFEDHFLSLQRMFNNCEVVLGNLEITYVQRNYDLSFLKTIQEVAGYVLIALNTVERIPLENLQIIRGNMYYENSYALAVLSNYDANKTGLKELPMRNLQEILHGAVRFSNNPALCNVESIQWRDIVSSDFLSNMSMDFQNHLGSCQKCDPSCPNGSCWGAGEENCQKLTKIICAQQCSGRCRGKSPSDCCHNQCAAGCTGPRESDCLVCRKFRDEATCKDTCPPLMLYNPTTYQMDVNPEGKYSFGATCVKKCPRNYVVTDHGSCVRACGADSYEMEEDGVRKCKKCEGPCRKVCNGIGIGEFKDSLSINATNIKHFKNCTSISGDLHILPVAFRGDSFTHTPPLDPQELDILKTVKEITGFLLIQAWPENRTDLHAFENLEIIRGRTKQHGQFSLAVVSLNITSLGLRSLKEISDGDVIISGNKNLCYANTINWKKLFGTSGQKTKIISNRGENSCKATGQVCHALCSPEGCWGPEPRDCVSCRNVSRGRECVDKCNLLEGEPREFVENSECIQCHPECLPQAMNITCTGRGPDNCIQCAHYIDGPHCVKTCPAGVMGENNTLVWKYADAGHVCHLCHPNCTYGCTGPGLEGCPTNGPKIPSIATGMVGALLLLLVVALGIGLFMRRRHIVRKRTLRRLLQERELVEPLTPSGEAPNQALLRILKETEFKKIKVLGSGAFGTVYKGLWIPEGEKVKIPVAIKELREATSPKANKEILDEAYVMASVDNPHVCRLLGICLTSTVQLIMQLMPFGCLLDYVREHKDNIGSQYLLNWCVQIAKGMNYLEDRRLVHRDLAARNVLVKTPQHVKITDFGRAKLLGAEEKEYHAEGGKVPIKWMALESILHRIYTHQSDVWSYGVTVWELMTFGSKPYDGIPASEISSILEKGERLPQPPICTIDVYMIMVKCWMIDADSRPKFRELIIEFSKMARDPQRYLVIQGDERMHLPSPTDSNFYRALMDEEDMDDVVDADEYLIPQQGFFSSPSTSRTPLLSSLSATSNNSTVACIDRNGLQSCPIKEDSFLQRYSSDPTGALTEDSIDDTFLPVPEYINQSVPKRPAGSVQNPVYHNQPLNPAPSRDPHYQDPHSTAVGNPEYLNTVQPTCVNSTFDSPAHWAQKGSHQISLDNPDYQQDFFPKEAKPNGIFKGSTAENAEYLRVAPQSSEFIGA

Consider `COC1C=CC(CNc2ncnc3oc(-c4ccccc4)c(-c4ccccc4)c23)(OC)O1` (configuration not stated), for which the IC50 (in general, the concentration that inhibits the measured activity by half) in test [1] is 827 nM.
The same measure, in the same setting: with `C[C@@H](CO)Nc1ncnc2oc(-c3ccccc3)c(-c3ccccc3)c12` the figure was 792 nM.
The compound `c1ccc(-c2oc3ncnc(NCCc4ccccn4)c3c2-c2ccccc2)cc1` came in with an IC50 in test [1] of 535 nM.
As for `Nc1ccc(CCNc2ncnc3oc(-c4ccccc4)c(-c4ccccc4)c23)cc1`, the IC50 is 640 nM in test [1] and more than 10000 nM in test [2].
In test [1], `OCCOCCNc1ncnc2oc(-c3ccccc3)c(-c3ccccc3)c12` showed a half-inhibitory concentration (IC50) of 760 nM.
Consider `OC[C@@H](Nc1ncnc2oc(-c3ccccc3)c(-c3ccccc3)c12)c1ccccc1`, for which the IC50 in test [3] is 223 nM; in test [5] it was more than 10000 nM; in test [6], 518 nM. Besides, the inhibition (commonly the share of the control response that was lost under treatment) in test [4] was more than 80%.
`O=S(=O)(Nc1ccc(CCNc2ncnc3oc(-c4ccccc4)c(-c4ccccc4)c23)cc1)c1ccccc1`: the figures for the concentration for half-maximal inhibition (IC50) in test [1] and in test [2] were 5830 nM and more than 10000 nM, respectively.
`Cc1cc(Nc2cc(N3CCN(C)CC3)nc(Sc3ccc(NC(=O)C4CC4)cc3)n2)n[nH]1` [TOZASERTIB] came in with an IC50 in test [2] of 120 nM.
As to `O=C(Nc1ccccc1)Nc1ccc(CCNc2ncnc3oc(-c4ccccc4)c(-c4ccccc4)c23)cc1`, in test [2], the IC50 amounted to 400 nM.
As for `OC1CCN(c2ncnc3oc(-c4ccccc4)c(-c4ccccc4)c23)CC1`, in test [7], the inhibition was 85.8%. In test [1], this compound showed an IC50 of 807 nM.
On to `c1ccc(-c2oc3ncnc(NCCc4c[nH]cn4)c3c2-c2ccccc2)cc1`, for which, in test [7], the inhibition amounted to 91.4%.
Consider `Nc1ccc(CNc2ncnc3oc(-c4ccccc4)c(-c4ccccc4)c23)cc1`, for which the IC50 in test [1] amounted to 945 nM.
Still for that read-out and setting: with `c1ccc(-c2oc3ncnc(NCCc4cnc[nH]4)c3c2-c2ccccc2)cc1` the figure was 296 nM.
`CC1CN(c2ncnc3oc(-c4ccccc4)c(-c4ccccc4)c23)CC(C)N1` (configuration not stated) came in with an IC50 in test [1] of 334 nM.
Consider `c1ccc(-c2oc3ncnc(NCCN4CCOCC4)c3c2-c2ccccc2)cc1`, for which the inhibition in test [7] was determined as 81.7%. Besides, inhibition in test [1] was half-maximal at 1770 nM (IC50).
Turning to `C[C@@H](O)CNc1ncnc2oc(-c3ccccc3)c(-c3ccccc3)c12`, in test [1], the IC50 was found to be 973 nM.
`C=CC(=O)Nc1ccc(-c2c(-c3ccccc3)oc3ncnc(N[C@H](CO)c4ccccc4)c23)cc1`: the IC50 in test [3] was 82 nM; in test [5] it was more than 10000 nM; in test [6], 394 nM.
The compound `OCCNc1ncnc2oc(-c3ccccc3)c(-c3ccccc3)c12` showed an inhibition in test [7] of 98.2%. For the same compound, the IC50 in test [1] came to 309 nM.
Consider `Oc1ccc(CCNc2ncnc3oc(-c4ccccc4)c(-c4ccccc4)c23)cc1`, for which the IC50 in test [1] stood at 640 nM. In other words, the sub-micromolar range.
`O=C(CCNc1ncnc2oc(-c3ccccc3)c(-c3ccccc3)c12)Nc1ccccc1`: the IC50 in test [1] and in test [2] was more than 10000 nM throughout.
Regarding `CCOC(=O)CCNc1ncnc2oc(-c3ccccc3)c(-c3ccccc3)c12`, the IC50 in test [1] is 796 nM; in test [2], more than 10000 nM.
The compound `c1ccc(-c2oc3ncnc(NCCCn4ccnc4)c3c2-c2ccccc2)cc1` came in with an inhibition in test [7] of 73.8%. This compound also came in with a concentration for half-maximal inhibition (IC50) in test [1] of 3310 nM.
For `O=C(Nc1ccc(CCNc2ncnc3oc(-c4ccccc4)c(-c4ccccc4)c23)cc1)c1ccccc1`, the IC50 in test [1] was 304 nM; in test [2], more than 10000 nM.
